Assay results published in patent US4906565A, “Method for the selective detection of microbial nucleotides” (Minnesota Mining and Manufacturing Company, priority 1986, dated 1990).
Values joined by “and” are separate entries in the source; they are usually repeats but may differ in a detail not shown here. Equal entries are not always repeated.

Legend:
Type in all cases: biochemical
glycerokinase = test: Inhibition of glycerokinase (protection of ATP), bioluminescent ATP assay in buffer; settings: for RLU 5 min. / RLU 10 min. / RLU 15 min. / RLU 0 min.: glycerokinase 1.6 U/ml; for RLU 5 min.: 5 min. after glycerol; for RLU 10 min.: 10 min. after glycerol; for RLU 15 min.: 15 min. after glycerol; for RLU 0 min.: before glycerol added
Method: Assay: Glycerol was added last to the samples to initiate the enzyme's activity. Before glycerol was added a 50 μl aliquot was taken from all samples. ATP levels in those aliquots (expressed in RLU) were determined as time zero values. Next glycerol was added to the mixtures and further 50 μl aliquots were taken at 5, 10, and 15 minutes. ATP in all aliquots was measured by bioluminescent means as described. Results:
Assay: Glycerol was added last to the samples to initiate the enzyme's activity. Before glycerol was added a 50 μl aliquot was taken from all samples as time zero. Next glycerol was added to the samples and after 5, 10 and 15 minutes, 50 μl aliquots were again taken. ATP in all aliquots was measured as described.
Assay: Glycerol was added last to the samples to initiate the enzyme's activity. Before glycerol was added a 50 μl aliquot was taken from all samples as time zero. At 5, 10 and 15 minutes after addition of glycerol further 50 μl aliquots were taken from the samples. ATP in all aliquots was measured as described.

firefly luciferase [1] = target: T1, firefly luciferase (Photinus pyralis, UniProt P08659); test: Effect of inhibitor on the bioluminescent assay of ATP
T1 construct: purchased Lumac/3M Lumit PM
T1 sequence (P08659 whole entry): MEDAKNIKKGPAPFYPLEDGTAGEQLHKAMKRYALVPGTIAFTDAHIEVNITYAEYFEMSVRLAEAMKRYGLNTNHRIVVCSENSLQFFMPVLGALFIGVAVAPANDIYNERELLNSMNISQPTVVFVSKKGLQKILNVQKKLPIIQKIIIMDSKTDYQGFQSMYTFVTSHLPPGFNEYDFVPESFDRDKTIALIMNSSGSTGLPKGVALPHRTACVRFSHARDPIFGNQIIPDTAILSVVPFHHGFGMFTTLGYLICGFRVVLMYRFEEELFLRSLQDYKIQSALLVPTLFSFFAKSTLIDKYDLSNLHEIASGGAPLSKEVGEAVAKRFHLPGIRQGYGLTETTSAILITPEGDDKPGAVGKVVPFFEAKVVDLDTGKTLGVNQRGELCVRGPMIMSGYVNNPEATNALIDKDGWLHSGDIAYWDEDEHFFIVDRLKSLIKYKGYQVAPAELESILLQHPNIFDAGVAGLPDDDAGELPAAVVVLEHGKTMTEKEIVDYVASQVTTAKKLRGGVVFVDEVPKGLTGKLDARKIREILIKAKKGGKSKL
Method: Assay: from each sample triplicate 100 μl aliquots were taken. In those aliquots ATP was measured as described.
Assay: from each sample triplicate 100 μl aliquots were taken. ATP in those aliquots was measured as described.
Assay: From each sample triplicate 100 μl aliquots were taken and ATP was measured as described.
Protocol: Eight samples were prepared using materials described above and previously, as shown in TABLE 7-1 and incubated for various periods of time (i.e., 0, 5, 10 and […]) before aliquots were taken and assayed as described.
Protocol: Increasing concentrations of hexokinase, with and without PCMPSA were prepared according to TABLE 8-1 using materials described above and previously.

firefly luciferase [2] = target: T1, firefly luciferase; test: as above; settings: for RLU mean / RLU, triplicate aliquots 1, 2, 3: ATP in buffer, no kinase; for % of control: control = 0 mM PCMB
[3] = PCMB 0.01 mM, ATP in buffer, no kinase

Structure (SMILES): O=C(O)c1cc[c]([Hg][Cl])cc1 [PCMB, p-chloromercuribenzoic acid]
- RLU 5 min. (glycerokinase; PCMB 0.01 mM): 9121 RLU
- RLU 10 min. (glycerokinase; PCMB 0.01 mM): 8982 RLU
- RLU 15 min. (glycerokinase; PCMB 0.01 mM): 3913 RLU
- RLU 0 min. (glycerokinase; PCMB 0.01 mM): 9065 RLU
- RLU 5 min. (glycerokinase; PCMB 0.05 mM): 9048 RLU
- RLU 10 min. (glycerokinase; PCMB 0.05 mM): 8727 RLU
- RLU 15 min. (glycerokinase; PCMB 0.05 mM): 9049 RLU
- RLU 0 min. (glycerokinase; PCMB 0.05 mM): 9003 RLU
- RLU 5 min. (glycerokinase; PCMB 0.1 mM): 9560 RLU
- RLU 10 min. (glycerokinase; PCMB 0.1 mM): 9253 RLU
- RLU 15 min. (glycerokinase; PCMB 0.1 mM): 9421 RLU
- RLU 0 min. (glycerokinase; PCMB 0.1 mM): 9499 RLU
- RLU 5 min. (glycerokinase; PCMB 0.5 mM): 8800 RLU
- RLU 10 min. (glycerokinase; PCMB 0.5 mM): 8617 RLU
- RLU 15 min. (glycerokinase; PCMB 0.5 mM): 9028 RLU
- RLU 0 min. (glycerokinase; PCMB 0.5 mM): 9041 RLU
- RLU 5 min. (glycerokinase; PCMB 1 mM): 9437 RLU
- RLU 10 min. (glycerokinase; PCMB 1 mM): 9329 RLU
- RLU 15 min. (glycerokinase; PCMB 1 mM): 9591 RLU
- RLU 0 min. (glycerokinase; PCMB 1 mM): 8802 RLU
- RLU 5 min. (glycerokinase; PCMB 2 mM): 7245 RLU
- RLU 10 min. (glycerokinase; PCMB 2 mM): 7905 RLU
- RLU 15 min. (glycerokinase; PCMB 2 mM): 7568 RLU
- RLU 0 min. (glycerokinase; PCMB 2 mM): 7987 RLU
- inhibition of glycerokinase (conclusion in words) (glycerokinase; PCMB final concentration 0.01 mM): sufficiently inhibited
- inhibition of glycerokinase (conclusion in words) (glycerokinase; PCMB, Samples 1-6 (0.01-2 mM)): very effective inhibitor of glycerokinase
- RLU mean (firefly luciferase [1]; [3]): 17887 RLU
- RLU, triplicate aliquots 1, 2, 3 (firefly luciferase [1]; [3]): 17959 RLU and 18219 RLU and 17484 RLU
- % of control (firefly luciferase [1]; PCMB 0.01 mM, control = 0 mM PCMB): 97%
- interference with the bioluminescent assay (conclusion in words) (firefly luciferase [1]; PCMB 0.01-1mM): do not significantly interfere
- RLU, triplicate aliquots 1, 2, 3 (firefly luciferase [1]; PCMB 10 mM, ATP in buffer, no kinase): 11 RLU and 10 RLU
- RLU mean (firefly luciferase [2]; PCMB 0.05 mM): 17508 RLU
- RLU, triplicate aliquots 1, 2, 3 (firefly luciferase [2]; PCMB 0.05 mM): 17984 RLU and 17423 RLU and 17118 RLU
- % of control (firefly luciferase [2]; PCMB 0.05 mM): 95%
- RLU mean (firefly luciferase [2]; PCMB 0.1 mM): 18246 RLU
- RLU, triplicate aliquots 1, 2, 3 (firefly luciferase [2]; PCMB 0.1 mM): 17914 RLU and 18720 RLU and 18505 RLU
- % of control (firefly luciferase [2]; PCMB 0.1 mM): 99%
- RLU mean (firefly luciferase [2]; PCMB 0.5 mM): 18142 RLU
- RLU, triplicate aliquots 1, 2, 3 (firefly luciferase [2]; PCMB 0.5 mM): 18190 RLU and 18413 RLU and 17824 RLU
- % of control (firefly luciferase [2]; PCMB 0.5 mM): 99%
- RLU mean (firefly luciferase [2]; PCMB 1 mM): 13696 RLU
- RLU, triplicate aliquots 1, 2, 3 (firefly luciferase [2]; PCMB 1 mM): 14576 RLU and 13556 RLU and 12956 RLU
- % of control (firefly luciferase [2]; PCMB 1 mM): 75%
- RLU mean (firefly luciferase [2]; PCMB 5 mM): 10 RLU
- RLU, triplicate aliquots 1, 2, 3 (firefly luciferase [2]; PCMB 5 mM): 11 RLU and 10 RLU and 9 RLU
- % of control (firefly luciferase [2]; PCMB 5 mM): < 1%
- RLU mean (firefly luciferase [2]; PCMB 10 mM): 10 RLU
- % of control (firefly luciferase [2]; PCMB 10 mM): < 1%
